# Data: US7972815B2, “Method of producing sugar chain using human G4 polypeptide” (Kyowa Hakko Kirin Co., Ltd., priority 1999, dated 2011)
# Legend:
# Assay type in all cases: biochemical
# secreted G3 = biological target: T1, secreted G3 (Homo sapiens, UniProt Q9NY97); assay: β1,3-galactosyltransferase activity of the secreted G3; conditions: acceptor substrate, method of Example 11(2)
# T1 construct: made in house; host or cells: Sf21 insect cells infected with recombinant baculovirus from pVL1393-F2G3
# T1 sequence (Q9NY97 31-397): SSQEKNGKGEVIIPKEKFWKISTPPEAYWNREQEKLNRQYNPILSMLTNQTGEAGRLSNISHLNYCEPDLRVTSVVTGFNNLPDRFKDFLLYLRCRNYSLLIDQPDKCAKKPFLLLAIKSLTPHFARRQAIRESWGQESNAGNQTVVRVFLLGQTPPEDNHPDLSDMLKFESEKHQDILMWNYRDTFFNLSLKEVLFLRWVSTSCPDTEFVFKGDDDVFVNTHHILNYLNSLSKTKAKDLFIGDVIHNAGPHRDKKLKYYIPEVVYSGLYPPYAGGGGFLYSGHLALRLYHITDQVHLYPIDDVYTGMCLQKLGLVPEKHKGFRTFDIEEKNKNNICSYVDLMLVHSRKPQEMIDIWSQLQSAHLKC
# Experimental: (§1) The glycosyltransferase reaction was carried out as follows. The reaction was carried out at 37° C. for 16 hours in 40 μl of an assay solution [50 mmol/l MOPS (pH 7.5), 5 mmol/l UDP-GlcNAc (SIGMA), 5 mmol/l MnCl2, 10 mmol/l of a sugar chain substrate and 10 μl of the above eluate]. Next, the reaction solution was treated at 100° C. for 5 minutes and then centrifuged at 10,000×g for 20 minutes to obtain the supernatant, and a portion thereof was analyzed by using HPAE/PAD (High Performance Anion Pulsed Amperometoric Detection; manufactured by DIONEX). The specific method was carried out in the usual way [Anal. Biochem., 189, 151 (1990), J. Biol. Chem., 273, 433 (1998)].
# On the other hand, when β1,3-galactosyltransferase activity of the secreted G3 was measured by using GlcNAc and GlcNAcβ1-3Galβ1-4Glc as acceptor substrates, the activity was not detected. […] The method described in Example 11(2) was used.
# secreted G7 = biological target: T2, secreted G7 (Homo sapiens, UniProt Q9C0J1); assay: β1,3-galactosyltransferase activity of the secreted G7; conditions: acceptor substrate, method of Example 11(2)
# T2 construct: made in house; host or cells: Sf21 insect cells infected with recombinant baculovirus from pVL1393-F2G7
# T2 sequence (Q9C0J1 56-378): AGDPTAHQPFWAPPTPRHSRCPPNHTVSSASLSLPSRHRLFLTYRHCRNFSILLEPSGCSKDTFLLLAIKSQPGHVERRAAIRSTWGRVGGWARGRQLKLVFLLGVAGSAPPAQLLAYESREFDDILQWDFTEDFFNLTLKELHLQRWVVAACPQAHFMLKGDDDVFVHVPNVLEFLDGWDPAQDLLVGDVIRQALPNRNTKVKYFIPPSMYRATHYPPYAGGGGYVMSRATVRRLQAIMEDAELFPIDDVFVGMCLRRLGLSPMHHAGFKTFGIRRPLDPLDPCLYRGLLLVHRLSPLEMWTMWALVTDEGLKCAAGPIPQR
# Experimental: as §1
# On the other hand, when β1,3-galactosyltransferase activity of the secreted G7 was measured by using GlcNAc and GlcNAcβ1-3Galβ1-4Glc as acceptor substrates, the activity was not detected. […] The method described in Example 11(2) was used.
# secretory G4 = biological target: T3, secretory G4 (Homo sapiens, UniProt Q9Y2A9, R328H); assay: β1,3-galactosyltransferase activity of the secretory G4; conditions: receptor substrate 10 mmol/l, 37° C., 16 hours
# T3 construct: made in house; host or cells: Sf21 insect cells infected with recombinant baculovirus from pVL1393-F2G4
# T3 sequence (Q9Y2A9 38-372 R328H): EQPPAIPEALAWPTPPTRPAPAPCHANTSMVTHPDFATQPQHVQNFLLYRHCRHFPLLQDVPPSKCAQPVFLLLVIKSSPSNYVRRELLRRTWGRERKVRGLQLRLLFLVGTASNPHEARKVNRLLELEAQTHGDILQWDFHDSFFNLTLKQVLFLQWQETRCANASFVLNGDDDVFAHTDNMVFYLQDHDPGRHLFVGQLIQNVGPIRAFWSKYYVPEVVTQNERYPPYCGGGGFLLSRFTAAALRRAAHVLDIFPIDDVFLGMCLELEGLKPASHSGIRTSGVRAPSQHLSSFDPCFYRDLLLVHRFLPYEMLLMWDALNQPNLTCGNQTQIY
# Experimental: On the other hand, when β1,3-galactosyltransferase activity of the secretory G4 was measured by using GlcNAc and GlcNAcβ1-3Galβ1-4Glc as receptor substrates, the activity was not detected.
# as §1
"β1,3-galactosyltransferase activity (secreted G3)","β1,3-galactosyltransferase activity (secreted G7)","β1,3-galactosyltransferase activity (secretory G4)",SMILES
not detected,not detected,not detected,"CC(=O)N[C@H]1C(O)O[C@H](CO)[C@@H](O)[C@@H]1O (stereo partly drawn) [GlcNAc, N-acetylglucosamine]"
not detected,not detected,not detected,CC(=O)N[C@H]1[C@H](O[C@H]2[C@@H](O)[C@@H](CO)O[C@@H](O[C@H]3[C@H](O)[C@@H](O)C(O)O[C@@H]3CO)[C@@H]2O)O[C@H](CO)[C@@H](O)[C@@H]1O (stereo partly drawn) [GlcNAcβ1-3Galβ1-4Glc]
